Experimental data reported in patent US20020051978A1, “Methods and compositions for the identification, assessment, prevention and therapy of human cancers” (priority 2000, published 2002).
Read-outs that look alike come from different tables or passages of the source.

What was measured:
[1] = test system: 60 cancer cell lines (NCI 60 cancer cell line series); test: NCI-DTP in vitro cancer screen, sulforhodamine B (SRB) growth inhibition, 48 hour exposure; type: cell-based, human
Summary of the method: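 Sixty NCI-DTP cancer lines plated at line-specific densities, dosed on day 1 in duplicate with 5 concentrations at ten-fold intervals. After 48 h exposure, cell mass read by SRB staining; GI50 (50% growth inhibition) taken from dose-response curves and expressed as -log GI50.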

[2] = test system: 60 cancer cell lines (NCI 60 cancer cell line series); conditions: cited from earlier work

## N[C@@H](Cc1ccc(N(CCCl)CCCl)cc1)C(=O)O [Melphalan]
[1]
  classification of cell line as Low(1), Medium(2) or High(3) sensitivity to compound: 2
[1]; Colon COLO-250 CL4010
  classification of cell line as Low(1), Medium(2) or High(3) sensitivity to compound: 2
[1]; Colon HCC-2998 (CL4002)
  classification of cell line as Low(1), Medium(2) or High(3) sensitivity to compound: 2
[1]; Colon HCT-15 CL4015
  classification of cell line as Low(1), Medium(2) or High(3) sensitivity to compound: 2
[1]; Colon HCT-116 (CL4003)
  classification of cell line as Low(1), Medium(2) or High(3) sensitivity to compound: 2
[1]; Colon HT29(I) CL4001
  classification of cell line as Low(1), Medium(2) or High(3) sensitivity to compound: 1
[1]; Colon KM12 (CL4017)
  classification of cell line as Low(1), Medium(2) or High(3) sensitivity to compound: 1
[1]; Colon SW-620 (CL4009)
  classification of cell line as Low(1), Medium(2) or High(3) sensitivity to compound: 2
[1]; Leukemia CCRF-CEM(I) (CL7003)
  classification of cell line as Low(1), Medium(2) or High(3) sensitivity to compound: 3
[1]; Leukemia HL-60(I) (CL7008)
  classification of cell line as Low(1), Medium(2) or High(3) sensitivity to compound: 3
[1]; Leukemia K562(I) CL7005
  classification of cell line as Low(1), Medium(2) or High(3) sensitivity to compound: 2
[1]; Leukemia MOLT-4 (CL7006)
  classification of cell line as Low(1), Medium(2) or High(3) sensitivity to compound: 3
[1]; Leukemia RPMI-8226(I) (CL7010)
  classification of cell line as Low(1), Medium(2) or High(3) sensitivity to compound: 2
[1]; Leukemia SR CL7019
  classification of cell line as Low(1), Medium(2) or High(3) sensitivity to compound: 3
[1]; Melanoma LOX IMVI CL10001
  classification of cell line as Low(1), Medium(2) or High(3) sensitivity to compound: 2
[1]; Melanoma M14 (CL10014)
  classification of cell line as Low(1), Medium(2) or High(3) sensitivity to compound: 2
[1]; Melanoma MALME-3M CL10002
  classification of cell line as Low(1), Medium(2) or High(3) sensitivity to compound: 2
[1]; Melanoma SK-MEL-2 (CL10005)
  classification of cell line as Low(1), Medium(2) or High(3) sensitivity to compound: 2
[1]; Melanoma SK-MEL-5 (CL10007)
  classification of cell line as Low(1), Medium(2) or High(3) sensitivity to compound: 2
[1]; Melanoma SK-MEL-28 (CL10008)
  classification of cell line as Low(1), Medium(2) or High(3) sensitivity to compound: 2
[1]; Melanoma UACC-62 (CL10020)
  classification of cell line as Low(1), Medium(2) or High(3) sensitivity to compound: 3
[1]; Melanoma UACC-257 (CL10021)
  classification of cell line as Low(1), Medium(2) or High(3) sensitivity to compound: 2
[1]; NSCLC A549/ATCC (CL1004)
  classification of cell line as Low(1), Medium(2) or High(3) sensitivity to compound: 2
[1]; NSCLC EKVX (CL1008)
  classification of cell line as Low(1), Medium(2) or High(3) sensitivity to compound: 2
[1]; NSCLC HOP-62 (CL1026)
  classification of cell line as Low(1), Medium(2) or High(3) sensitivity to compound: 2
[1]; NSCLC HOP-92 (CL1029)
  classification of cell line as Low(1), Medium(2) or High(3) sensitivity to compound: 2
[1]; NSCLC NCI-H226 CL1013
  classification of cell line as Low(1), Medium(2) or High(3) sensitivity to compound: 2
[1]; cell line NSCLC NCI-H23(I), CL1001
  sensitivity class NSCLC NCI-H23(I) CL1001: 2
[1]; cell line NSCLC NCI-H332M, CL1017
  sensitivity class NSCLC NCI-H332M CL1017: 1
[1]; cell line NSCLC NCI-H460, CL1021
  sensitivity class NSCLC NCI-H460 CL1021: 3
[1]; cell line NSCLC NCI-H522, CL1003
  sensitivity class NSCLC NCI-H522 CL1003: 2
[1]; cell line Ovarian IGROV1, CL6010
  sensitivity class Ovarian IGROV1 CL6010: 2
[1]; cell line Ovarian OVCAR-3, CL6001
  sensitivity class Ovarian OVCAR-3 CL6001: 2
[1]; cell line Ovarian OVCAR-4, CL6002
  sensitivity class Ovarian OVCAR-4 CL6002: 2
[1]; cell line Ovarian OVCAR-5, CL6003
  sensitivity class Ovarian OVCAR-5 CL6003: 2
[1]; cell line Ovarian OVCAR-8, CL6005
  sensitivity class Ovarian OVCAR-8 CL6005: 2
[1]; cell line Ovarian SK-OV-3, CL6011
  sensitivity class Ovarian SK-OV-3 CL6011: 2
[1]; cell line Prostate DU-145, CL11003
  sensitivity class Prostate DU-145 CL11003: 2
[1]; cell line Prostate PC-3(I), CL11001
  sensitivity class Prostate PC-3(I) CL11001: 2
[1]; cell line Renal 786-O, CL9018
  sensitivity class Renal 786-O CL9018: 2
[1]; cell line Renal A498, CL9013
  sensitivity class Renal A498 CL9013: 1
[1]; cell line Renal ACHN, CL9023
  sensitivity class Renal ACHN CL9023: 3
[1]; cell line Renal CAKI-1, CL9015
  sensitivity class Renal CAKI-1 CL9015: 3
[1]; cell line Renal RXF-393, CL9016
  sensitivity class Renal RXF-393 CL9016: 2
[1]; cell line Renal SN12C, CL9008
  sensitivity class Renal SN12C CL9008: 2
[1]; cell line Renal TK10, CL9024
  sensitivity class Renal TK10 CL9024: 1
[1]; cell line Renal UO-31, CL9004
  sensitivity class Renal UO-31 CL9004: 2
[2]; Breast BT-549 (CL5013)
  -Log (GI50): 4.4
[2]; Breast HS-578T CL5006
  -Log (GI50): 4.3
[2]; Breast MCF7(I) (CL5001)
  -Log (GI50): 5.0
[2]; Breast MCF7/ADRr (CL5002)
  -Log (GI50): 4.4
[2]; Breast MDA-MB-231 CL5005
  -Log (GI50): 4.3
[2]; Breast MDA-MB-435 (CL5011)
  -Log (GI50): 4.4
[2]; Breast MDA-N CL5012
  -Log (GI50): 4.3
[2]; Breast T-47D (CL5014)
  -Log (GI50): 4.9
[2]; CNS SF-268 CL12014
  -Log (GI50): 4.7
[2]; CNS SF-295 CL12015
  -Log (GI50): 4.7
[2]; CNS SF-539 CL12016
  -Log (GI50): 4.8
[2]; CNS SNB-19 (CL12002)
  -Log (GI50): 4.3
[2]; CNS SNB-75(I) CL12005
  -Log (GI50): 4.5
[2]; CNS U251(I) CL12009
  -Log (GI50): 4.6
[2]; Colon COLO-250 CL4010
  -Log (GI50): 4.4
[2]; Colon HCC-2998 (CL4002)
  -Log (GI50): 4.3
[2]; Colon HCT-15 CL4015
  -Log (GI50): 4.4
[2]; Colon HCT-116 (CL4003)
  -Log (GI50): 4.4
[2]; Colon HT29(I) CL4001
  -Log (GI50): 4.1
[2]; Colon KM12 (CL4017)
  -Log (GI50): 4.1
[2]; Colon SW-620 (CL4009)
  -Log (GI50): 4.5
[2]; Leukemia CCRF-CEM(I) (CL7003)
  -Log (GI50): 5.5
[2]; Leukemia HL-60(I) (CL7008)
  -Log (GI50): 5.5
[2]; Leukemia K562(I) CL7005
  -Log (GI50): 4.3
[2]; Leukemia MOLT-4 (CL7006)
  -Log (GI50): 5.6
[2]; Leukemia RPMI-8226(I) (CL7010)
  -Log (GI50): 4.4
[2]; Leukemia SR CL7019
  -Log (GI50): 5.8
[2]; Melanoma LOX IMVI CL10001
  -Log (GI50): 4.7
[2]; Melanoma M14 (CL10014)
  -Log (GI50): 4.6
[2]; Melanoma MALME-3M CL10002
  -Log (GI50): 4.6
[2]; Melanoma SK-MEL-2 (CL10005)
  -Log (GI50): 4.2
[2]; Melanoma SK-MEL-5 (CL10007)
  -Log (GI50): 4.4
[2]; Melanoma SK-MEL-28 (CL10008)
  -Log (GI50): 4.3
[2]; Melanoma UACC-62 (CL10020)
  -Log (GI50): 4.9
[2]; Melanoma UACC-257 (CL10021)
  -Log (GI50): 4.4
[2]; NCSLC NCI-H522 CL1003
  -Log (GI50): 4.6
[2]; NSCLC A549/ATCC (CL1004)
  -Log (GI50): 4.5
[2]; NSCLC EKVX (CL1008)
  -Log (GI50): 4.3
[2]; NSCLC HOP-62 (CL1026)
  -Log (GI50): 4.8
[2]; NSCLC HOP-92 (CL1029)
  -Log (GI50): 4.4
[2]; NSCLC NCI-H23(I) CL1001
  -Log (GI50): 4.6
[2]; NSCLC NCI-H226 CL1013
  -Log (GI50): 4.4
[2]; NSCLC NCI-H332M CL1017
  -Log (GI50): 4.1
[2]; NSCLC NCI-H460 CL1021
  -Log (GI50): 5.2
[2]; Ovarian IGROV1 CL6010
  -Log (GI50): 4.3
[2]; Ovarian OVCAR-3 CL6001
  -Log (GI50): 4.4
[2]; Ovarian OVCAR-4 CL6002
  -Log (GI50): 4.4
[2]; Ovarian OVCAR-5 CL6003
  -Log (GI50): 4.3
[2]; Ovarian OVCAR-8 CL6005
  -Log (GI50): 4.4
[2]; Ovarian SK-OV-3 CL6011
  -Log (GI50): 4.5
[2]; Prostate DU-145 CL11003
  -Log (GI50): 4.3
[2]; Prostate PC-3(I) CL11001
  -Log (GI50): 4.4
[2]; Renal 786-O CL9018
  -Log (GI50): 4.8
[2]; Renal A498 CL9013
  -Log (GI50): 4.0
[2]; Renal ACHN CL9023
  -Log (GI50): 5.0
[2]; Renal CAKI-1 CL9015
  -Log (GI50): 5.0
[2]; Renal RXF-393 CL9016
  -Log (GI50): 4.7
[2]; Renal SN12C CL9008
  -Log (GI50): 4.8
[2]; Renal TK10 CL9024
  -Log (GI50): 4.2
[2]; Renal UO-31 CL9004
  -Log (GI50): 4.3
